One experiment deals with H1650 xenografts. The experiment in a line: In vivo efficacy alone or with paclitaxel in Met non amplified NCI-H1650 lung adenocarcinoma human cell model, Example 15. Also noted: species or system SCID mice. The conditions noted are these: paclitaxel 12.5 mg/kg IV at day 1, 8 and 15, single agent.
Experiment [1] concerns HCC78 lung cancer cell line. The experiment in a line: HCC78 viability, single agents or 1:1 combination with paclitaxel (CTG 120h), Example 13. In kind it is cell-based. The conditions noted are these: Homo sapiens, HCC78, 120 h. On the procedure:
HCC78 lung cancer cell line was cultured in the media described above at 37° C. in a humidified atmosphere containing 5% CO2. […] When in 1:1 combination, both paclitaxel and the mAb or ADC were serially diluted (9 concentrations each, triplicates). Effect on cell viability was assessed after 5 days of incubation at 37° C./5% CO2 by quantification of cellular ATP levels using CellTiter-Glo reagent (Promega Ref: G7571) at 75 μL reagent/well. All the conditions were tested in triplicates. Luminescence was quantified on a multipurpose plate reader. IC50s were calculated using standard four-parametric curve fitting. […] Two independent experiments were performed (N1 and N2).

The next experiment has as its system lung cancer cell lines. The experiment in a line: Lung cancer cell line panel of Example 7, statements in text (CTG 120h). It counts as cell-based. The conditions noted are these: lung cancer cell lines of Table 15, single agents. On the procedure: Cell lines were cultured in the media described above at 37° C. in a humidified atmosphere containing 5% CO2. Cells were seeded in 96 well clear bottom plates (96 well clear-bottom, white, Corning reference 3903) and exposed to the mAbs, mAbs mixture, ADCs or ADCs mixture as single agents or in 1:1 combination with Paclitaxel. When in 1:1 combination, both the combining partner (Paclitaxel) and the mAb, mAb mixture, ADC or ADC mixture were serially diluted (9 concentrations each, triplicates). Effect on cell viability was assessed after 5 days of incubation at 37° C./5% CO2 by quantification of cellular ATP levels using CellTiter-Glo reagent (Promega Ref: G7571) at 75 μL reagent/well. All the conditions were tested in triplicates. Luminescence was quantified on a multipurpose plate reader. IC50s were calculated using standard four-parametric curve fitting. IC50 is defined as the compound concentration at which the CTG signal is reduced to 50% of that measured for the control. Two independent experiments were performed (N1 and N2).

In experiment [2] the test system is pancreatic cancer cell lines. The experiment in a line: Pancreatic cancer cell line panel of Example 10 (CTG 120h). The conditions noted are these: pancreatic cancer cell lines of Table 16, single agents. In kind it is cell-based.
Protocol: Cell lines were cultured in the media described above at 37° C. in a humidified atmosphere containing 5% CO2. […] When in 1:1 combination, both the combining partner (Paclitaxel, Trametinib or Gemcitabine) and the mAb or ADC were serially diluted (9 concentrations each, triplicates). Effect on cell viability was assessed after 5 days of incubation at 37° C./5% CO2 by quantification of cellular ATP levels using CellTiter-Glo reagent (Promega Ref: G7571) at 75 μL reagent/well. All the conditions were tested in triplicates. Luminescence was quantified on a multipurpose plate reader. IC50s were calculated using standard four-parametric curve fitting. […] Two independent experiments were performed (N1 and N2).

Molecules are shown by their SMILES.

Protocol for H1650 xenografts: Below are the procedures for determining the in vivo therapeutic effect of a Bcl-xL ADC targeting the Met protein as a single agent or in combination with paclitaxel. Their activities were compared to the corresponding naked anti-Met mAb or Ab G-L42C-P25 (non-targeting ADC) formulated in Phosphate-Buffered Saline (PBS) in a Met non amplified NCI-H1650 lung adenocarcinoma human cell line after intravenous (IV) administration.
NCI-H1650 cells, obtained from ATCC, were cultured in RPMI supplemented with 10% SBS, 1% Penicillin-Streptomycin and 1% HEPES. Cells were resuspended in 50% Matrigel® (Corning®) and 0.1 ml containing 10×10^6 cells were subcutaneously inoculated into the right flank of female SCID mice, provided by Charles River.
Mice body weight was monitored 3 times a week and tumor size measured using electronic calipers. Tumor volume was estimated by measuring the minimum and maximum tumor diameters using the formula: (minimum diameter)2(maximum diameter)/2.
With DTV (Delta Tumor Volume) at Dx, calculated being TV at Dx−TV at Randomization.
Mice were sacrificed at the first measurement for which tumor volume exceeded 2000 mm3 or at the first signs of animal health deterioration. […] SCID mice were maintained according to institutional guidelines.

For orientation: IC50 means the concentration that gives 50% inhibition. For `CC(=O)O[C@H]1C(=O)[C@@]2(C)[C@H]([C@H](OC(=O)c3ccccc3)[C@]3(O)C[C@H](OC(=O)[C@H](O)[C@@H](NC(=O)c4ccccc4)c4ccccc4)C(C)=C1C3(C)C)[C@]1(OC(C)=O)CO[C@@H]1C[C@@H]2O` [Paclitaxel, paclitaxel], the “TGI % (d 18)” value in the experiment with H1650 xenografts is listed as −14.4%. Besides, the IC50 in experiment [1] (Mean) was 6.44 nM; in experiment [1] (N1), 6.04 nM; in experiment [1] (N2) it was 6.84 nM. In addition, the figures for the “effect on the viability” value (in the experiment with lung cancer cell lines; in experiment [2]) were “induced dose dependent decrease in cell viability (with measurable IC50) in all cell lines except NCI-H1838” and “induced dose dependent decrease in cell viability with measurable IC50 for most of the cell lines”, respectively.
